ChEMBL document CHEMBL1201862, “PubChem BioAssay data set” (2004)
Values joined by “and” are separate entries in the source; they are usually repeats but may differ in a detail not shown here. Identical values can stand only once.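 Exposure lasted 48 hours, with cells grown in 96-well plates and compounds tested at five concentrations. Abbreviation: GI50, concentration required for 50% inhibition of growth.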 Active and inactive are the calls of the source. Rule as the data show it: active = GI50 up to about 1.1 µM and inactive = higher.

Key:
Test in all cases: NCI-60 cell line screen, 48 h
[1] = tested on: 786-0
[2] = tested on: HL-60
[3] = tested on: NCI-H23
[4] = tested on: NCI-H522
[5] = tested on: PC-3
[6] = tested on: MDA-MB-435
[7] = tested on: ACHN
[8] = tested on: MOLT-4
[9] = tested on: DMS-273
[10] = tested on: SF-539
[11] = tested on: XF498
[12] = tested on: U-251
[13] = tested on: LOX IMVI
[14] = tested on: A549
[15] = tested on: BT-549
[16] = tested on: NCI-H460
[17] = tested on: MDA-N
[18] = tested on: SR
[19] = tested on: IGROV-1
[20] = tested on: OVCAR-8
[21] = tested on: RPMI-8226
[22] = tested on: SNB-19
[23] = tested on: SK-MEL-5
[24] = tested on: Hs-578T
[25] = tested on: KM-20L2
[26] = tested on: HCT-116
[27] = tested on: CAKI-1
[28] = tested on: DU-145
[29] = tested on: MDA-MB-231
[30] = tested on: M14
[31] = tested on: DLD-1
[32] = tested on: HCC 2998
[33] = tested on: LXFL 529
[34] = tested on: HCT-15
[35] = tested on: HT-29
[36] = tested on: MCF7
[37] = tested on: SN12C
[38] = tested on: COLO 205
[39] = tested on: OVCAR-3
[40] = tested on: SK-MEL-28
[41] = tested on: K562
[42] = tested on: NCI-H226
[43] = tested on: HOP-62
[44] = tested on: SW-620
[45] = tested on: OVCAR-4
[46] = tested on: HOP-92
[47] = tested on: SK-MEL-2
[48] = tested on: KM12
[49] = tested on: OVCAR-5
[50] = tested on: SF-295
[51] = tested on: SNB-75
[52] = tested on: UACC-257
[53] = tested on: UACC-62
[54] = tested on: TK-10
[55] = tested on: UO-31
[56] = tested on: SK-OV-3
[57] = tested on: Malme-3M
[58] = tested on: SF-268

Nc1nc(N)c2nc(CNc3ccc(C(=O)NC(CCCNC(=O)c4ccccc4C(=O)O)C(=O)O)cc3)cnc2n1 (centres undefined)
GI50 [1]: 0.01 µM (active)
GI50 [2]: < 0.01 µM (active)
GI50 [3]: < 0.01 µM (active)
GI50 [4]: < 0.01 µM (active)
GI50 [5]: 0.01 µM (active)
GI50 [6]: 0.00311 µM (active)
GI50 [7]: 0.01 µM (active)
GI50 [8]: < 19.4 nM (active) and < 10 nM (active)
GI50 [9]: 0.01 µM (active)
GI50 [10]: < 0.01 µM (active)
GI50 [11]: > 100 µM (inactive)
GI50 [12]: < 10 nM (active) and 14.3 nM (active)
GI50 [13]: < 0.01 µM (active)
GI50 [14]: < 0.01 µM (active)
GI50 [15]: 6.18 µM (inactive)
GI50 [16]: < 0.01 µM (active)
GI50 [17]: 0.01 µM (active)
GI50 [18]: 0.01 µM (active)
GI50 [19]: < 0.01 µM (active)
GI50 [20]: < 0.01 µM (active)
GI50 [21]: < 0.01 µM (active)
GI50 [22]: < 20.2 nM (active) and 21.6 nM (active)
GI50 [23]: 10 nM (active) and < 18.4 nM (active)
GI50 [24]: > 100 µM (inactive)
GI50 [25]: 0.00875 µM (active)
GI50 [26]: < 0.215 µM (active)
GI50 [27]: 0.01 µM (active)
GI50 [28]: 0.01 µM (active)
GI50 [29]: > 100 µM (inactive)
GI50 [30]: 0.01 µM (active)
GI50 [31]: < 0.01 µM (active)
GI50 [32]: < 0.01 µM (active)
GI50 [33]: 0.000762 µM (active)
GI50 [34]: 0.01 µM
GI50 [35]: < 0.01 µM (active)
GI50 [36]: 0.01 µM (active)

O=C(CO)CC(=O)C(=O)Nc1cccc(C(F)(F)F)c1
GI50 [1]: > 100 µM (inactive)
GI50 [2]: > 100 µM (inactive)
GI50 [37]: > 100 µM (inactive)
GI50 [3]: > 100 µM (inactive)
GI50 [4]: > 100 µM (inactive)
GI50 [7]: > 100 µM (inactive)
GI50 [38]: > 100 µM (inactive)
GI50 [39]: > 100 µM (inactive)
GI50 [40]: > 100 µM (inactive)
GI50 [8]: > 100 µM (inactive)
GI50 [41]: > 100 µM (inactive)
GI50 [9]: > 100 µM (inactive)
GI50 [42]: > 100 µM (inactive)
GI50 [10]: > 100 µM (inactive)
GI50 [11]: > 100 µM (inactive)
GI50 [13]: > 100 µM (inactive)
GI50 [14]: > 100 µM (inactive)
GI50 [16]: > 100 µM (inactive)
GI50 [43]: > 100 µM (inactive)
GI50 [44]: > 100 µM (inactive)
GI50 [45]: > 100 µM (inactive)
GI50 [46]: > 100 µM (inactive)
GI50 [18]: > 100 µM (inactive)
GI50 [19]: > 100 µM (inactive)
GI50 [47]: > 100 µM (inactive)
GI50 [20]: > 100 µM (inactive)
GI50 [21]: > 100 µM (inactive)
GI50 [48]: > 100 µM (inactive)
GI50 [22]: > 100 µM (inactive)
GI50 [49]: > 100 µM (inactive)
GI50 [25]: > 100 µM (inactive)
GI50 [26]: > 100 µM (inactive)
GI50 [27]: > 100 µM (inactive)
GI50 [30]: > 100 µM (inactive)
GI50 [50]: > 100 µM (inactive)
GI50 [51]: > 100 µM (inactive)
GI50 [52]: > 100 µM (inactive)
GI50 [53]: > 100 µM (inactive)
GI50 [54]: > 100 µM (inactive)
GI50 [55]: > 100 µM (inactive)
GI50 [31]: > 100 µM (inactive)
GI50 [56]: > 100 µM (inactive)
GI50 [32]: > 100 µM (inactive)
GI50 [57]: > 100 µM (inactive)
GI50 [33]: > 100 µM (inactive)
GI50 [34]: > 100 µM
GI50 [58]: > 100 µM (inactive)
GI50 [35]: > 100 µM (inactive)
